This note sets out measurements from patent US5591742A, “Pyridopyrimidinone antianginal agents” (Pfizer Inc., priority 1992, dated 1997).

For data set [1], the target named is T1, cGMP-inhibited cAMP PDE (Oryctolagus cuniculus, UniProt G1ST54).
T1 construct: from tissue; host or cells: rabbit platelets
T1 sequence (G1ST54 1-1128): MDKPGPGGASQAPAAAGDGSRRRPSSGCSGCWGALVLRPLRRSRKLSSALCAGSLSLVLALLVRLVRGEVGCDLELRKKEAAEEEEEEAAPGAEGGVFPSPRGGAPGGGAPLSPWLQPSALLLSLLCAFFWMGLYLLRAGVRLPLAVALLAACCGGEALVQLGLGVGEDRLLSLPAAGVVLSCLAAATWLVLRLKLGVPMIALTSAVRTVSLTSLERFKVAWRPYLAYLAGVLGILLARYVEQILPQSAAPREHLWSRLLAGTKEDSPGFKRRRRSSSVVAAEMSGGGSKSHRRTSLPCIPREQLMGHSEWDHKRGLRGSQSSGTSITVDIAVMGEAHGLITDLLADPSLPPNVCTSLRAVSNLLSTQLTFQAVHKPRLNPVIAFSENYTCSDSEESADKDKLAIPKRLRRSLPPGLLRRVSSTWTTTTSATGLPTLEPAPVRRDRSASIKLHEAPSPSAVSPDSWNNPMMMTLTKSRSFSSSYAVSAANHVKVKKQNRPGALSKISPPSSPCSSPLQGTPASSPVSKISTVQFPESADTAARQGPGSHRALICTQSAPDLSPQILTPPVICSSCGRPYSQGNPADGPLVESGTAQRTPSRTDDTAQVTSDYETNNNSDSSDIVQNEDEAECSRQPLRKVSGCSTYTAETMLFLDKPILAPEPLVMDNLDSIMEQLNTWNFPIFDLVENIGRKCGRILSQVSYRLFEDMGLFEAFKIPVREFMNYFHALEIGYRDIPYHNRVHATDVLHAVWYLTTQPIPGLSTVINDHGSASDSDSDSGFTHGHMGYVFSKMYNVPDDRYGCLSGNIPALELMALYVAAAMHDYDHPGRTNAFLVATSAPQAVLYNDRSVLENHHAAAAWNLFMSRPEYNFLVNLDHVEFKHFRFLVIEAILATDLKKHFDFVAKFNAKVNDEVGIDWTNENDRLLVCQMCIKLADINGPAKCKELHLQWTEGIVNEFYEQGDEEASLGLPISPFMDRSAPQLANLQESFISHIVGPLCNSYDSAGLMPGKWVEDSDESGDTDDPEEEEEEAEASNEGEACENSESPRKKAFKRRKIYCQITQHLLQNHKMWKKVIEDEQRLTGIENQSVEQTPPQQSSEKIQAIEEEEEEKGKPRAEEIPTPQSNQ
Description: PDE inhibition: cGMP-inhibited cAMP PDE from rabbit platelets. The conditions noted are these: in vitro. Format: biochemical. As to the method:
(§1) Phosphodiesterase activity
(§2) Compound affinities for cGMP and cAMP PDEs are assessed by determination of their IC50 values (the concentration of inhibitor required for 50% inhibition of enzyme activity). The PDE enzymes are isolated from rabbit platelets and rat kidney, essentially by the method of W. J. Thompson et al. (Biochem., 1971, 10, 311). The calcium/calmodulin (Ca/CAM)--independent cGMP PDE and the cGMP-inhibited cAMP PDE enzymes are obtained from rabbit platelets whilst, of the four major PDE enzymes of the rat kidney, the Ca/CAM-dependent cGMP PDE (fraction I) is isolated. Assays are performed using a modification of the "batch" method of W. J. Thompson and M. M. Appleman (Biochem., 1979, 18, 5228).

Data set [2] deals with calcium/calmodulin (Ca/CAM)-independent cGMP PDE. In words: PDE inhibition: Ca/CAM-independent cGMP PDE from rabbit platelets. Format: biochemical. The conditions noted are these: IC50 cGMP-inhibited cAMP PDE / IC50 Ca/CAM-independent cGMP PDE. The protocol: as §1, §2
For data set [3], the target named is T2, calcium/calmodulin (Ca/CAM)-independent cGMP PDE (Oryctolagus cuniculus, UniProt G1SX67).
T2 construct: The PDE enzymes are isolated from rabbit platelets and rat kidney; from tissue; host or cells: rabbit platelets
Described as above. It is filed as biochemical. The following applies: Ca/CAM-independent cGMP PDE, rabbit platelets, in vitro. As to the method: as §1, §2

Data set [4] is described as follows: Safety profile in rabbit (i.v. or i.d.). Format: in vivo.

Take `CCCc1ccnc2c(=O)[nH]c(-c3cc(S(=O)(=O)NCCN4CCOCC4)ccc3OCC)nc12` [Example 1, 2-[2-Ethoxy-5-(2-morpholinoethylsulphamoyl)phenyl]-8-n-propylprido [3,2,d]pyrimidin-4 (3H) -one]: the IC50 in data set [1] is 19 µM; in data set [3] it was 21 nM. For the same compound, in data set [2], the “SELECTIVITY RATIO” value is 904. Moreover, in data set [4] (doses up to 3 mg/kg i.d.), the untoward effects entry is “no untoward effects being observed”.
As for `CCCc1ccnc2c(=O)[nH]c(-c3cc(S(=O)(=O)N4CCN(C)CC4)ccc3OCC)nc12` [Example 2, 2-[2-Ethoxy-5(4-methyl-l-piperazinylsulphonyl)phenyl]-8-n-propylrido [3,2-d]pyrimidin-4(3H)-one], the IC50 in data set [1] turned out to be 13 µM; in data set [3], 26 nM. In addition, in data set [2], the “SELECTIVITY RATIO” value is reported as 500.
In the case of `CCCc1ccnc2c(=O)[nH]c(-c3cc(S(=O)(=O)N4CCNCC4)ccc3OCC)nc12` [Example 3, 2-[2-Ethoxy-5-(1-piperazinylsulphonyl]phenyl]-8-n-propylprido [3,2-d]pyrimidin-4(3H) -one], the untoward effects entry in data set [4] (doses up to 10 mg/kg i.d.) is given as “no untoward effects being observed”.
As to `CCCc1ccnc2c(=O)[nH]c(-c3cc(S(=O)(=O)N4CCC(C(=O)OCC)CC4)ccc3OCC)nc12` [Example 4, 2-[2-Ethoxy-5-(4-ethoxycarbonylpiperidinosulphonyl)-phenyl]-8-n-propylprido[3,2-d]pyrimidin-4(3H) -one], the IC50 came to 7.6 µM in data set [1] and 5.6 nM in data set [3]. In addition, in data set [2], the “SELECTIVITY RATIO” value is given as 1,357.
On to `CCCc1ccnc2c(=O)[nH]c(-c3cc(S(=O)(=O)N(C)CCC(=O)OCC)ccc3OCC)nc12` [Example 5, 2-[2 -Ethoxy-5-(N-2-ethoxycarbonylethyl-N-methyl-sulphamoyl)phenyl]-8-n-propylpyrido[3,2-d]pyrimidin-4(3H)-one], for which the results for the IC50 in data set [1] and in data set [3] were 8.3 µM and 14 nM, respectively. Moreover, the “SELECTIVITY RATIO” value in data set [2] amounted to 592.
As to `CCCc1ccnc2c(=O)[nH]c(-c3cc(S(=O)(=O)N4CCN(CCO)CC4)ccc3OCC)nc12` [Example 7, 2-{2-Ethoxy-5-[4-(2-hydroxyethyl)-1-piperazinyl-sulphony]phenyl}-8-n-propylprido[3.2-d]pyrimidin-4(3H)-one], the values for the IC50 in data set [1] and in data set [3] were 11 µM and 9.8 nM, respectively. In addition, in data set [2], the “SELECTIVITY RATIO” value is on record as 1,122. Further, the untoward effects entry in data set [4] (doses up to 0.1 mg/kg i.v.) is given as “no untoward effects being observed”.
For `CCCc1ccnc2c(=O)[nH]c(-c3cc(S(=O)(=O)NCCN4CCNC4=O)ccc3OCC)nc12` [Example 8, 2-{2-Ethoxy-5-[2-(1-imidazolidin-2-onyl)ethyl-sulphamoyl]phenyl}-8-n-propylprido[3,2-d]pryimidin-4 (3H)-one], in data set [4] (doses up to 3 mg/kg i.d.), the untoward effects entry is reported as “no untoward effects being observed”.
Take `CCCc1ccnc2c(=O)[nH]c(-c3cc(S(=O)(=O)N4CCC(C(=O)O)CC4)ccc3OCC)nc12` [Example 9, 2-[5-(4-Carboxypiperidinosulphonyl)-2-ethoxyphenyl]-8-n-propylprido [3,2-d]pyrimidin-4(3H)-one]: the IC50 was found to be 0.22 µM in data set [1] and 1.2 nM in data set [3]. Further, in data set [2], the “SELECTIVITY RATIO” value came to 183. Besides, the untoward effects result in data set [4] (doses up to 1 mg/kg i.v.) was “no untoward effects being observed”.
`CCCc1ccnc2c(=O)[nH]c(-c3cc(NS(=O)(=O)c4cccnc4)ccc3OCC)nc12` [Example 12A, 2-[2-Ethoxy-5-(3-pyridylsulphonylamino)phenyl]-8-n-propylpyrido [3,2-d]pyrimidin-4(3H) -one]: the values for the IC50 in data set [1] and in data set [3] were 4.6 µM and 19 nM, respectively. Besides, the “SELECTIVITY RATIO” value in data set [2] was 242.
Turning to `CCOc1ccc(S(=O)(=O)N2CCN(C)CC2)cc1-c1nc2c(C#N)ccnc2c(=O)[nH]1` [Example 24, 8-Cyano-2-[2-ethoxy-5-(4-methyl-1-piperazinyl-sulphonyl)phenyl]pyrido[3,2d]pyrimidin-4(3H)-one], the IC50 in data set [1] was more than 100 µM; in data set [3], 25 nM. The “SELECTIVITY RATIO” value in data set [2] is reported as > 4,000.

What is called IC50 is the concentration needed to halve the response being measured.
